Patent publication US7335682B2, “Pharmaceutical compositions and methods for treating immune-response associated diseases of the surface and the anterior segment of the eye” (The Zhongshan Opthalmic Center, priority 2000, dated 2008)
Like-named read-outs stand apart in the source and are kept apart here.

Assays:
[1] = tested on: immune rejection of allotypic cornea transplantation; settings: rat; for effect on immune rejection in allotypic cornea transplantation: superficial (ocular surface) administration
[2] = tested on: immune-response related ocular surface diseases; assay: Further clinical observations with topical tacrolimus in immune ocular diseases; type: in vivo, patients
[3] = tested on: immunosuppression; settings: in vitro; cited from earlier work
[4] = cited from earlier work
[5] = tested on: immune rejection in high risk cornea transplantation; assay: Clinical study of suppression of immune rejection in high risk cornea transplantation
Source text: Fifty-six high risk patients (56 eyes) who needed operation for cornea transplantation were randomly divided into a treatment group and a control group, each having […] patients. […] Average time for follow-up survey was 5½ months. The main criteria for clinical valuation include visual function, lasting time for transparency, new angiopoiesis, swelling, opaque degree of transplanted corneas after operation.
56 high risky patients (56 eyes) who need operation for cornea transplantation were chosen in this study with 32 eyes from male and 24 from female. The average age was 31 (19-66). Of which 27 eyes were carried for full cornea transplantation, 14 for full cornea transplantation with scleral ring, 10 eyes with angiopoiesis cornea were used for cornea transplantation, and 10 for multiple transplantations. Blindness was caused by pyogenic infection of eyes (30 eyes), severe chemical injury (18 eyes), and thermal burn (8 eyes).
The control medicine CsA was a product of Swiss Sandoz pharmaceuticals which was diluted to 1% eye drops with oleum ricini. Corticosteroid eye drops was also purchased commercially.
The above cases were randomly divided into treatment group and control group with each having 28 eyes. […] Medicines were given 3 days after surgery, continuing 3-9 months, follow-up survey was 5½ months.
Observation was done twice a week within 1-3 months after medication, then once a week after 3 months. The items for observation were vision and transplanted corneas (including three criteria: new angiopoiesis, swelling, opacity of transplanted corneas). The scores for each criterion are as follows: new angiopoiesis has grades 0-3, grade 0 indicates no new angiopoiesis (0 score), grade 1 a few new angiopoiesis focusing on transplanted corneas and starting penetration the edges of transplantation (1 score), grade 2 a few new angiopoiesis focusing on center of the transplanted corneas (2 scores), grade 3 a great numbers of new angiopoiesis fully covering the whole transplanted corneas (3 scores). The swelling contains grades 0-3, grade 0 means no swelling (0 score), grade 1 light swelling (1 score), grade 2 medium swelling (2 scores), grade 3 severe swelling (3 scores). […] Rejection index (RI) is a sum of the previous 3 criteria. When RI=5 scores it is considered rejection. The study would not cover the following conditions: epithelium had reaction of rejection, complication happened during operation, and swelling and dissolution of transplanted corneas occurred after operation due to a functional failure of implanted cornea endothelia, lesion fissure, secondary glaucoma, infection of transplantation.
All operations on patients in the study were done by professors in the Department of Corneal Diseases. Donor corneas were all freshly obtained from adults. Specific people were assigned for follow-up survey after surgery. t-test, u-test, and analysis of variance were carried out on the data using commercially available software.

Structure (SMILES) | effect on inflammation in early phase ([1]; superficial administration) | inhibition of new angiopoiesis after cornea transplantation ([1]; superficial administration) | effect on immune rejection in allotypic cornea transplantation [1] | effect on immune rejection in allotypic cornea transplantation ([1]; listed as Tecolimus) | effect on swelling of transplanted corneas in early phase ([1]; superficial administration) | conjunctive inflammation non-responsive to CsA treatment ([2]; 17 cases, topical administration) | recurrence of recurring erosive corneal ulcer ([2]; 26 cases, five months to two years, topical) | rejection reaction in cornea transplantation ([2]; 64 cases, most of them, topical) | effect on Type I and IV hypersensitive reactions ([2]; topical administration) | effect on Types II and III hypersensitive reactions (e.g. Steven Johnson Syndrome) ([2]; topical administration) | effect on re-construction of ocular surface and obstinate and immune corneal diseases ([2]; topical administration) | effect on immunosuppression relative to CsA [3] | terminal elimination half-life ([4]; healthy volunteers) [h] | absorption half-life ([4]; oral dose, measured in 16 patients) [h] | terminal elimination half-life ([4]; transplant patients) [h] | final rate of rejection to the transplantation ([5]; 28 eyes per group, RI=5 counted as rejection, follow-up 5½ months) [%] | maintenance time for transparency in transplanted corneas after surgery ([5]; 28 eyes per group, eye drops four times a day with TOBRA DEX) [days] | eyes with final vision (=0.05 for FK-506, =0.5 for CsA as printed) ([5]; 28 eyes per group, with TOBRA DEX, follow-up 5½ months) [%] | new angiopoiesis, swelling, opaqueness and RI values of cornea transplantation ([5]; during follow-up survey) | adverse reactions (twinges, itches, toxic reactions on cornea epithelia) ([5]; topical eye drops, patients)
C[C@@H]1C[C@H]2[C@@H]3CCC4=CC(=O)C=C[C@]4(C)[C@@]3(F)[C@@H](O)C[C@]2(C)[C@@]1(O)C(=O)CO [corticosteroid, dexamethasone] | strong inhibition effect | strongest effect | – | – | – | – | – | – | – | – | – | – | – | – | – | – | – | – | – | –
C=CC[C@@H]1/C=C(\C)C[C@H](C)C[C@H](OC)[C@H]2O[C@@](O)(C(=O)C(=O)N3CCCC[C@H]3C(=O)O[C@H](/C(C)=C/[C@@H]3CC[C@@H](O)[C@H](OC)C3)[C@H](C)[C@@H](O)CC1=O)[C@H](C)C[C@@H]2OC.O [tacrolimus, Tacrolimus] | – | – | clear inhibition | clearly therapeutic effects | worse therapeutic effects | successfully controlled | only three cases had recurrence | significantly reduced rejection reaction | significant therapeutic effects | some, but not complete therapeutic effect | excellent clinical effects | 10-100 folds | 21.2 | 5.7 ± 4.6 | 11.7 ± 3.9 | 60.8 | 70.4 ± 18.32 | 39.3 | much better than the CsA group | No patient showed adverse reactions
